Starred links: 1 amine or outer side, 2 acyl side, 3 side chain; linkers in the order of their positions; H or OH if unused. Positions of bridges follow the written chain, without caps; N, C: chain ends. Non-standard residues stand in square brackets, D forms with d. Residues, ends and D or L forms follow the SMILES beside them. *: point of attachment. Ala(piperidin-4-yl) = O=C([C@H](CC1CCN([*:3])CC1)N[*:1])[*:2]; X10 = C[C@@H](c1c[nH]c2ccc(F)cc12)[C@H](N[*:1])C(=O)[*:2]; DOTA = O=C(O)CN1CCN(CC(=O)O)CCN(CC(=O)*)CCN(CC(=O)O)CC1; Trp(5-F) = N[C@@H](Cc1c[nH]c2ccc(F)cc12)C(=O)O; Ala(4-THP) = N[C@@H](CC1CCOCC1)C(=O)O; Val(3-OH) = CC(C)(O)[C@H](N)C(=O)O; tBuAla = CC(C)(C)C[C@H](N)C(=O)O; pGlu = O=C1CC[C@@H](C(=O)O)N1; Tle = CC(C)(C)[C@H](N)C(=O)O; hLeu = CC(C)CC[C@H](N)C(=O)O; Nle = CCCC[C@H](N)C(=O)O; Dab = NCC[C@H](N)C(=O)O
Target: T1, human 4lg B7-H3 (Homo sapiens, UniProt Q5ZPR3)
T1 sequence (Q5ZPR3 29-534): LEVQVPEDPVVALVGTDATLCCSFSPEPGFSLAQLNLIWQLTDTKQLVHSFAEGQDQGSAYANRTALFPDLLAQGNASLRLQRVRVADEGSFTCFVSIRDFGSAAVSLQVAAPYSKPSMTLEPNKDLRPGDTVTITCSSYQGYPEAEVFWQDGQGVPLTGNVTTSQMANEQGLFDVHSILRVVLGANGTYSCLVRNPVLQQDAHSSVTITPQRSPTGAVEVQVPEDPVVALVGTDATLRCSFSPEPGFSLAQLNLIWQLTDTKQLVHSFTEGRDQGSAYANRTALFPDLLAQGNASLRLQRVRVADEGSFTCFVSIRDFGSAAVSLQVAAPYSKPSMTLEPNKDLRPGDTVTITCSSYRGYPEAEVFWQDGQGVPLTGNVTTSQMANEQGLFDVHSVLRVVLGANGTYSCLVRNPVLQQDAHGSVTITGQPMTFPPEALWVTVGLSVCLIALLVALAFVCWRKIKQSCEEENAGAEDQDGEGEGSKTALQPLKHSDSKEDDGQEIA
Experiment: Affinity determination by surface plasmon resonance (SPR) to 4Ig B7-H3
Conditions: 4Ig B7-H3

[1] = SPR KD—25° C., 25° C. flow cell temperature
[2] = SPR KD—37° C., 37° C. flow cell temperature

## CC(=O)N[C@@H](CCC(C)C)C(=O)N[C@@H](Cc1ccc(O)cc1)C(=O)N[C@H]1CSSC[C@@H](C(=O)N[C@@H](Cc2c[nH]c3ccc(F)cc23)C(=O)N[C@@H](Cc2ccccc2)C(=O)N[C@H](C(=O)N[C@H](CCCCNC(=O)CN2CCN(CC(=O)O)CCN(CC(=O)O)CCN(CC(=O)O)CC2)C(N)=O)[C@@H](C)O)NC(=O)[C@H](Cc2ccc(O)cc2)NC(=O)[C@H](C(C)C)NC(=O)[C@H](CC(=O)O)NC(=O)[C@H](Cc2ccc(O)cc2)NC(=O)[C@H](CCCCN)NC(=O)CNC(=O)[C@H](CC(C)(C)C)NC1=O [compound 174, Ac-hLeu-Y-C-tBuAla-G-K-Y-D-V-Y-C-5FW-F-Thr-dLys(DOTA)-CONH2] (Ac-[hLeu]YC[tBuAla]GKYDVYC[Trp(5-F)]FT[dK](DOTA)-NH2; disulfide 3-11)
[1]
  Kd: 10 to 100 nM

## CC(C)CC[C@H](NC(=O)[C@@H]1CCC(=O)N1)C(=O)N[C@@H](Cc1ccc(O)cc1)C(=O)N[C@H]1CSSC[C@@H](C(=O)N[C@@H](Cc2c[nH]c3ccc(F)cc23)C(=O)N[C@@H](Cc2ccccc2)C(=O)N[C@H](C(=O)N[C@H](CCCCNC(=O)CN2CCN(CC(=O)O)CCN(CC(=O)O)CCN(CC(=O)O)CC2)C(=O)O)C(C)(C)O)NC(=O)[C@H](Cc2ccc(O)cc2)NC(=O)[C@H](C(C)C)NC(=O)[C@H](CC(=O)O)NC(=O)[C@H](CC2CCOCC2)NC(=O)[C@H](CC2CCNCC2)NC(=O)CNC(=O)[C@H](C(C)(C)C)NC1=O [Cpd #477, Pyroglutamate-hLeu-Y-C-Tbg-G-PipAla-ThpA-D-V-Y-C-5FW-F-hydroxyVal-dLys(DOTA)-COOH] ([pGlu][hLeu]YC[Tle]G[Ala(piperidin-4-yl)][Ala(4-THP)]DVYC[Trp(5-F)]F[Val(3-OH)][dK](DOTA)-OH; disulfide 4-12)
[2]
  Kd: 1 to 10 nM

## CCCC[C@H](NC(C)=O)C(=O)N[C@@H](Cc1ccc(O)cc1)C(=O)N[C@H]1CSSC[C@@H](C(=O)N[C@@H](Cc2c[nH]c3ccccc23)C(=O)N[C@@H](Cc2ccccc2)C(=O)N[C@H](C(=O)N[C@H](CCCCNC(=O)CN2CCN(CC(=O)O)CCN(CC(=O)O)CCN(CC(=O)O)CC2)C(N)=O)[C@@H](C)O)NC(=O)[C@H](Cc2ccc(O)cc2)NC(=O)[C@H](C(C)C)NC(=O)[C@H](CCN)NC(=O)[C@H](Cc2ccc(O)cc2)NC(=O)[C@H](CCCCN)NC(=O)CNC(=O)[C@H](C(C)C)NC1=O [compound 552, Ac-Nle-Y-C-V-G-K-Y-Dab-V-Y-C-W-F-Thr-dLys(DOTA)-CONH2] (Ac-[Nle]YCVGKY[Dab]VYCWFT[dK](DOTA)-NH2; disulfide 3-11)
[1]
  Kd: 10 to 100 nM

## CC(=O)N[C@@H](CCC(C)C)C(=O)N[C@@H](Cc1ccc(O)cc1)C(=O)N[C@H]1CSSC[C@@H](C(=O)N[C@H](C(=O)N[C@@H](Cc2ccccc2)C(=O)N[C@H](C(=O)N[C@H](CCCCNC(=O)CN2CCN(CC(=O)O)CCN(CC(=O)O)CCN(CC(=O)O)CC2)C(=O)O)C(C)(C)O)[C@@H](C)c2c[nH]c3ccc(F)cc23)NC(=O)[C@H](Cc2ccc(O)cc2)NC(=O)[C@H](C(C)C)NC(=O)[C@H](CC(=O)O)NC(=O)[C@H](CC2CCOCC2)NC(=O)[C@H](CC2CCNCC2)NC(=O)CNC(=O)[C@H](C(C)(C)C)NC1=O [compound 450, Ac-hLeu-Y-C-Tbg-G-PipAla-ThpA-D-V-Y-C-(2S,3S-betaMe-5FW)-F-hydroxyVal-dLys(DOTA)-COOH] (Ac-[hLeu]YC[Tle]G[Ala(piperidin-4-yl)][Ala(4-THP)]DVYC[X10]F[Val(3-OH)][dK](DOTA)-OH; disulfide 3-11)
[2]
  Kd: 1 to 10 nM

Source: patent US20250296959A1, “B7-H3 TARGETING PEPTIDES AND CONSTRUCTS THEREOF” (Mariana Oncology Inc., priority 2024, published 2025)
